Laboratory results from article PMC5394417, “Investigating the molecular mechanism of positive and negative allosteric modulators in the calcium-sensing receptor dimer” (Scientific Reports, 2017).

Target: T1, HA-E297A CaSR mutant (Rattus norvegicus, UniProt P48442, E297A)
T1 construct: mGluR5 signal peptide (N); expressed in transfected cells; host or cells: HEK293T
T1 sequence (P48442 20-1079 E297A): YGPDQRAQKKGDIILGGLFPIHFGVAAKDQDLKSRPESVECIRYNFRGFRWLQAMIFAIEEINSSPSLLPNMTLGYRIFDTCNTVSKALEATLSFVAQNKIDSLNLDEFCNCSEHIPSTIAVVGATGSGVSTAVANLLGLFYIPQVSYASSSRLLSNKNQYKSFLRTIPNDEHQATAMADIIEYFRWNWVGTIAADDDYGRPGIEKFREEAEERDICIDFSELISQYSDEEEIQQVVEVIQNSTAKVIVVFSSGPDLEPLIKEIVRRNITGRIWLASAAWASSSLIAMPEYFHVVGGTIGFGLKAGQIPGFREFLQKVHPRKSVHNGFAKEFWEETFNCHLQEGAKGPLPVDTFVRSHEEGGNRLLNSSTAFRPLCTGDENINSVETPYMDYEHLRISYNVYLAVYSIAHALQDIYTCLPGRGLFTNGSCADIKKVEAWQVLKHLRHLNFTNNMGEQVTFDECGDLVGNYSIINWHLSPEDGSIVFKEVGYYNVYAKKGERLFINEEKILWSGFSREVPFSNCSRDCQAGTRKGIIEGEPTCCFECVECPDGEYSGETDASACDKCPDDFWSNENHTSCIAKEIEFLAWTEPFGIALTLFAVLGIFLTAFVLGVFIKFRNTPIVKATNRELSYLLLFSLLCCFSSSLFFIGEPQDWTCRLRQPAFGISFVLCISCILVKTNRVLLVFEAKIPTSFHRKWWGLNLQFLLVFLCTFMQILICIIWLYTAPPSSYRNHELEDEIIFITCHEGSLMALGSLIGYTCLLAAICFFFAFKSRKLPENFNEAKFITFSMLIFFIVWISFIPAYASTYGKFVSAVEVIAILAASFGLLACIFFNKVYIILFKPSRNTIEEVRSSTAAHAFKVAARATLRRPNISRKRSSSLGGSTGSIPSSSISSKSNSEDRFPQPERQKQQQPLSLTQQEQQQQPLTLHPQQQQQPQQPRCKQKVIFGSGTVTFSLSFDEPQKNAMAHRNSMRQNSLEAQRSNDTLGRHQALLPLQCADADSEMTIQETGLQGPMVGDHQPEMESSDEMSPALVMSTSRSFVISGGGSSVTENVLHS
Assay: IP-One assay, HEK293T transiently transfected
Type: cell-based

## [Ca+2] [Ca^2+]
Ca^2+ alone
  EC50: 7.36 mM
  Hill coefficient ± S.E.M.: 3.01 ± 0.07
Normalized to maximum response of WT CaSR
  Max ± S.E.M.: 130 ± 25%
